These results are taken from US10711029B2, “Beta-d-2′-deoxy-2′-alpha-fluoro-2′-beta-c-substituted-4′fluoro-n6-substituted-6-amino-2-substituted purine nucleotides for the treatment of hepatitis c virus infection” (Atea Pharmaceuticals, Inc., priority 2016, dated 2020).

The target in data set [1] is HCV RNA-dependent RNA polymerase (Hepatitis C virus genotype 1a, UniProt P27958). The following applies: Ivanov et al., Russian J. Bioorg. Chem. 2010; cited from earlier work.
Data set [2] is described as follows: Cytotoxicity in the replicon cells (staining with STT). It counts as cell-based. To be noted: human, Huh-7 luc/neo ET cells, read-out: HCV Replicon CC50. Here is the method: (§1) Huh-7 luc/neo ET cells bearing a discistronic HCV genotype 1b luciferase reporter replicon were plated at 7.5×10^3 cells/mi in duplicate 96-well plates for the parallel determination of antiviral efficacy (EC50) and cytotoxicity (TC50). The plates were cultured for 24 hours prior to the addition of compounds. Six serial one half log dilutions of the test articles (high test concentration of 100.0 μM. or high test concentration of 1.0 μM) and human interferon-alpha2b (high test 10.0 U/ml) were prepared in cell culture medium and added to the cultured cells in triplicate wells for each dilution. Six wells in the test plates received medium alone as an untreated control. Following 72 hours of culture in the presence of compound, one of the plates was used for the determination of cytotoxicity by staining with STT and the other for antiviral efficacy by determination of luciferase reporter activity. Cytotoxicity and efficacy data were collected and imported into a customized Excel workbook for determination of the TC50 and EC50 values.
Background: In antiviral work, replicon cells carry a viral genome segment that copies itself.

For data set [3], the system named is HCV genotype 1b luciferase reporter replicon. Description: HCV replicon assay, antiviral efficacy by luciferase reporter activity. It counts as cell-based. The protocol:
as §1

Data set [4] concerns Huh-7 luc/neo ET cells. Description: Cytotoxicity in the replicon cells (staining with STT). It counts as cell-based. To be noted: 72 hours, read-out: HCV Replicon CC50. Here is the method: as §1
Data set [5] concerns the target T1, adenosine deaminase (Homo sapiens, UniProt P00813).
T1 sequence (P00813 1-363): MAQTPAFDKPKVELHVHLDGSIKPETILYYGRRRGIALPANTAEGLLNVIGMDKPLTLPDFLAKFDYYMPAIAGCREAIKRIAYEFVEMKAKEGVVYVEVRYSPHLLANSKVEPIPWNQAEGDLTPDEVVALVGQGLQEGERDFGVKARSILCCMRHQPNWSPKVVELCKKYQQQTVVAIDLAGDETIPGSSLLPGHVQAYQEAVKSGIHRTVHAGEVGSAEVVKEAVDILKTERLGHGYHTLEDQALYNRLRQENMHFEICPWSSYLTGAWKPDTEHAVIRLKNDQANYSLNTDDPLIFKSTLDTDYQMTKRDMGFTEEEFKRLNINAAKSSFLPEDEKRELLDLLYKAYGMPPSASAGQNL
The following applies: over a long period (120 minutes); WO 2010/091386; cited from earlier work.

A value given as a limit tells only on which side of the number the result lay.

HCV RNA-dependent RNA polymerase, sequence (P27958 2421-3011): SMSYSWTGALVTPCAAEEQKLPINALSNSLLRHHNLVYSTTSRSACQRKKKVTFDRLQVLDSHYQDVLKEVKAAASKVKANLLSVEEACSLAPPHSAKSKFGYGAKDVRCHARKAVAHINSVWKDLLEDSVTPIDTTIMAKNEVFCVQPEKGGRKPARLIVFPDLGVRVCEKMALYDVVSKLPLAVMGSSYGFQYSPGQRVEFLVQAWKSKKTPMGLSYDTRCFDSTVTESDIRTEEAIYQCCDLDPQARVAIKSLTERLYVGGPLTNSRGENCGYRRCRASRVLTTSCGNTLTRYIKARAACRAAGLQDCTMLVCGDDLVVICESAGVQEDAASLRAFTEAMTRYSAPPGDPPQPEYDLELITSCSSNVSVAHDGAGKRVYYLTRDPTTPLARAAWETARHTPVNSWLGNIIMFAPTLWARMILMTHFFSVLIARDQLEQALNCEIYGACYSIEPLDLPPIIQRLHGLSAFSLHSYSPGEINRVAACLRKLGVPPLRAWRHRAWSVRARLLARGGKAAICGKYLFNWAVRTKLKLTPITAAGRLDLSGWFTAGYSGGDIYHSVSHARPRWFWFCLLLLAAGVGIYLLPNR

`O=c1ccn([C@@H]2O[C@](F)(COP(=O)(O)OP(=O)(O)OP(=O)(O)O)[C@@H](O)[C@H]2O)c(=O)[nH]1` [4′fluorouridine 5′-O-triphosphate]: the “inhibition of HCV RNA-dependent RNA polymerase” value in data set [1] was “effective inhibitor”.

Usually CC50 stands for the concentration giving 50% cytotoxicity. For the molecule `CN(C)c1nc(N)nc2c1ncn2[C@@H]1O[C@](F)(CO)C(O)[C@@]1(C)F` (stereo partly drawn) [Cmpd 1], the cytotoxic concentration (CC50) at 72 h in data set [2] is > 100 µM.

`CC(C)OC(=O)[C@H](C)NP(=O)(OC[C@@]1(F)O[C@@H](n2cnc3c(N(C)C)nc(N)nc32)[C@](C)(F)C1O)Oc1ccccc1` (stereo partly drawn) [Cmpd 2]: the CC50 at 72 h in data set [2] is > 10 µM. In addition, the “Fold increase in activity compared to parent nucleoside” value (shortened to “Fold increase in activity”) in data set [3] is on record as 2,941.

Take `CN(c1nc(N)nc2c1ncn2[C@@H]1O[C@](F)(CO)C(O)[C@@]1(C)F)C1CC1` (stereo partly drawn) [Cmpd 3]: the CC50 at 72 h in data set [2] was > 100 µM.

In the case of `CC(C)OC(=O)[C@H](C)NP(=O)(OC[C@@]1(F)O[C@@H](n2cnc3c(N(C)C4CC4)nc(N)nc32)[C@](C)(F)C1O)Oc1ccccc1` (stereo partly drawn) [Cmpd 4], the CC50 in data set [4] is > 10 µM. In data set [3], the “Fold increase in activity” value is listed as 667.

As to `CNc1nc(N)nc2c1ncn2[C@@H]1O[C@](F)(CO)C(O)[C@@]1(C)F` (stereo partly drawn) [Cmpd 5], in data set [2], the CC50 at 72 h was > 100 µM.

For the molecule `CNc1nc(N)nc2c1ncn2[C@@H]1O[C@](F)(COP(=O)(N[C@@H](C)C(=O)OC(C)C)Oc2ccccc2)C(O)[C@@]1(C)F` (stereo partly drawn) [Cmpd 6], in data set [2], the CC50 at 72 h is > 10 µM. Also, the “Fold increase in activity” value in data set [3] is reported as 10,000.

As to `CC(C)OC(=O)[C@H](C)N[P@](=O)(OC[C@@]1(F)O[C@@H](n2cnc3c(N(C)C)nc(F)nc32)[C@](C)(F)[C@@H]1O)Oc1ccccc1` [Cmpd 8], the CC50 at 72 h in data set [2] is 35.3 µM. Further, the “Fold increase in activity” value in data set [3] was 2521.

For `CNc1nc(F)nc2c1ncn2[C@@H]1O[C@](F)(CO[P@@](=O)(N[C@@H](C)C(=O)OC(C)C)Oc2ccccc2)[C@@H](O)[C@@]1(C)F` [Cmpd 10], the CC50 at 72 h in data set [2] worked out at 54 µM. Also, the “Fold increase in activity” value in data set [3] is 4.7.

Consider `C[C@@]1(F)C(O)[C@@](F)(CO)O[C@H]1n1cnc2c(N3CCCC3)nc(N)nc21` (stereo partly drawn) [Cmpd 11], for which the CC50 at 72 h in data set [2] was > 100 µM.

In the case of `CC(C)OC(=O)[C@H](C)NP(=O)(OC[C@@]1(F)O[C@@H](n2cnc3c(N4CCCC4)nc(N)nc32)[C@](C)(F)C1O)Oc1ccccc1` (stereo partly drawn) [Cmpd 12], the CC50 at 72 h in data set [2] is > 10 µM. Besides, the “Fold increase in activity” value in data set [3] was >31.3.

As for `CCN(C)c1nc(N)nc2c1ncn2[C@@H]1O[C@](F)(CO)C(O)[C@@]1(C)F` (stereo partly drawn) [Cmpd 13], the CC50 at 72 h in data set [2] was > 100 µM.

Consider `CCN(C)c1nc(N)nc2c1ncn2[C@@H]1O[C@](F)(COP(=O)(N[C@@H](C)C(=O)OC(C)C)Oc2ccccc2)C(O)[C@@]1(C)F` (stereo partly drawn) [Cmpd 14], for which, in data set [2], the CC50 at 72 h is > 10 µM. Also, the “Fold increase in activity” value in data set [3] is 434.

With `CC(C)OC(=O)[C@H](C)NP(=O)(OC[C@@]1(F)O[C@@H](n2cnc3c(N(C)C4CC4)nc(N)nc32)[C@](C)(F)C1O)Oc1ccccc1` (stereo partly drawn) [Cmpd 15], the CC50 in data set [4] is > 50 µM. Also, the “Fold increase in activity” value in data set [3] amounted to 3332.

As for `CC(C)OC(=O)[C@H](C)N[P@](=O)(OC[C@@]1(F)O[C@@H](n2cnc3c(N(C)C)nc(N)nc32)[C@](C)(F)C1O)Oc1ccccc1` (stereo partly drawn) [Cmpd 16], in data set [2], the CC50 at 72 h was > 50 µM. In data set [3], the “Fold increase in activity” value was 40.

`CNc1nc(F)nc2c1ncn2[C@@H]1O[C@](F)(CO[P@@](=O)(N[C@@H](C)C(=O)OC(C)C)Oc2ccccc2)C(O)[C@@]1(C)F` (stereo partly drawn) [Cmpd 17]: the CC50 at 72 h in data set [2] is > 50 µM. The “Fold increase in activity” value in data set [3] is recorded as 4.3.

With `CN(C)c1nc(N)nc2[nH]cnc12` [N^6-dimethyl-2,6-diaminopurine], in data set [5], the “deamination by adenosine deaminase” value is on record as “not substantially deaminated”.
